{"source": "paper PMC5045831", "about": "(Drugs in R&D, 2016)", "key": {"[1]": {"settings": "cited from earlier work"}, "Evaluation of safety": {"assay": "Evaluation of safety", "format": "in vivo, human", "settings": "single oral 50 mg with water, lemon or Seville orange juice; nine subjects"}, "[2]": {"format": "in vivo, human"}, "[3]": {"settings": "cited from earlier work", "remark": "listed apart in the source"}, "[4]": {"settings": "cited from earlier work", "remark": "listed apart in the source"}, "[5]": {"settings": "Seville orange juice compared with water"}, "[6]": {"settings": "Seville orange juice, healthy volunteers"}}, "note": "Read-outs that look alike come from different tables or passages of the source."}
{"smiles": "CCCc1nn(C)c2c(=O)[nH]c(-c3cc(S(=O)(=O)N4CCN(C)CC4)ccc3OCC)nc12", "note": "[sildenafil]", "values": [{"measurement": "change in bioavailability", "setting": "[1]; co-administration of ciprofloxacin and clarithromycin", "value": "significantly increases"}, {"measurement": "increase in bioavailability and AUC", "setting": "[1]; with grapefruit juice, Cmax unaffected", "value": 23, "unit": "%"}, {"measurement": "adverse effects reported", "setting": "Evaluation of safety", "value": "without reporting any adverse effect"}, {"measurement": "change in Tmax", "setting": "[2]; [5]", "value": "non-significant changes"}, {"measurement": "increase in AUC0–∞", "setting": "[2]; [5]", "value": 44, "unit": "%"}, {"measurement": "increase in Cmax", "setting": "[2]; [5]", "value": 8, "unit": "%"}, {"measurement": "reduction of apparent oral clearance (CL/F)", "setting": "[2]; [5]", "value": 30, "unit": "%"}, {"measurement": "Tmax", "setting": "[2]; male, human, plasma, po, 50 mg", "value": "~1", "unit": "h"}]}
{"smiles": "CCOC(=O)C1=C(C)NC(C)=C(C(=O)OC)C1c1cccc(Cl)c1Cl", "note": "(centres unmarked) [felopdipine]", "values": [{"measurement": "increase in AUC", "setting": "[3]; with Seville orange", "value": 93, "unit": "%"}, {"measurement": "increase in AUC", "setting": "[3]; with grapefruit", "value": 76, "unit": "%"}]}
{"smiles": "COc1ccc2c(c1)[C@]13CCCC[C@@H]1[C@H](C2)N(C)CC3", "note": "[dextromethorphan]", "values": [{"measurement": "change in bioavailability", "setting": "[4]; with Seville orange juice, effects lasted 3 days", "value": "increased significantly"}]}
{"smiles": "COc1cc2c(c(OC)c1OC)-c1ccc(OC)c(=O)cc1[C@@H](NC(C)=O)CC2", "note": "[colchicine]", "values": [{"measurement": "decrease in AUC", "setting": "[4]; [6]", "value": 20, "unit": "%"}, {"measurement": "decrease in Cmax", "setting": "[4]; [6]", "value": 24, "unit": "%"}, {"measurement": "delay in Tmax", "setting": "[4]; [6]", "value": 1, "unit": "h"}]}
